Assay [1] addresses PI3K-α (PIK3CA) in MDA-MB-453 cells (Homo sapiens, UniProt P42336). In words: PI3K-alpha kinase (PIK3CA) in vitro cell based assay, MDA-MB-453 cells, SureFire Ultra AlphaLisa. The conditions noted are these: read-out: PI3K-α (PIK3CA) in vitro cell based assay IC50. An outline of the steps:
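Cells treated 3 h in serum-free MEM with 1 μg/mL insulin, 10-point 1:3 series in 0.3% DMSO, then lysed for SureFire Ultra AlphaLisa read-out. Inhibition normalized to DMSO (max) and 1 μM GDC-0032 (min); duplicate averages fitted by 4-parameter logistic for relative IC50.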

Assay [2] has as its target T1, PI3K-α (PIK3CA) wild-type (WT), p110α/p85α complex (Homo sapiens, UniProt P42336).
T1 construct: Recombinant, catalytically active human full length PIK3KA Wild-type and H1047R mutant; 6×His (N); purchased EMD Millipore Sigma 14-602M
In words: PI3K-alpha kinase (PIK3CA) biochemical activity, ADP-Glo, wild-type. The conditions noted are these: Soy PI lipid substrate. An outline of the steps:
(§1)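 ADP formation measured by ADP-Glo luminescence after reaction at 27 °C to about 10% ATP turnover, using 20 uM ATP, 50 uM PIP2diC8 or soy PI lipid, HEPES pH 7.4 with MgCl2. Enzyme (1-5 nM WT or H1047R p110α/p85α) and compound preincubated 1 h first; 10-point 1:3 curves fitted four-parameter for IC50.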
Background: ADP-Glo first removes unused ATP, then detects ADP through luciferase.

The target of assay [3] is T2, PI3K-α (PIK3CA) H1047R mutant, p110α/p85α complex (Homo sapiens, UniProt P42336, H1047R).
T2 construct: Recombinant, catalytically active human full length PIK3KA Wild-type and H1047R mutant; 6×His (N); purchased EMD Millipore Sigma 14-792M
In words: PI3K-alpha kinase (PIK3CA) biochemical activity, ADP-Glo, H1047R mutant. The note with it: Soy PI lipid substrate. In short, it runs like this: as §1

As usually defined, the IC50 is the concentration needed to halve the response being measured.

T2 sequence (P42336 whole entry H1047R): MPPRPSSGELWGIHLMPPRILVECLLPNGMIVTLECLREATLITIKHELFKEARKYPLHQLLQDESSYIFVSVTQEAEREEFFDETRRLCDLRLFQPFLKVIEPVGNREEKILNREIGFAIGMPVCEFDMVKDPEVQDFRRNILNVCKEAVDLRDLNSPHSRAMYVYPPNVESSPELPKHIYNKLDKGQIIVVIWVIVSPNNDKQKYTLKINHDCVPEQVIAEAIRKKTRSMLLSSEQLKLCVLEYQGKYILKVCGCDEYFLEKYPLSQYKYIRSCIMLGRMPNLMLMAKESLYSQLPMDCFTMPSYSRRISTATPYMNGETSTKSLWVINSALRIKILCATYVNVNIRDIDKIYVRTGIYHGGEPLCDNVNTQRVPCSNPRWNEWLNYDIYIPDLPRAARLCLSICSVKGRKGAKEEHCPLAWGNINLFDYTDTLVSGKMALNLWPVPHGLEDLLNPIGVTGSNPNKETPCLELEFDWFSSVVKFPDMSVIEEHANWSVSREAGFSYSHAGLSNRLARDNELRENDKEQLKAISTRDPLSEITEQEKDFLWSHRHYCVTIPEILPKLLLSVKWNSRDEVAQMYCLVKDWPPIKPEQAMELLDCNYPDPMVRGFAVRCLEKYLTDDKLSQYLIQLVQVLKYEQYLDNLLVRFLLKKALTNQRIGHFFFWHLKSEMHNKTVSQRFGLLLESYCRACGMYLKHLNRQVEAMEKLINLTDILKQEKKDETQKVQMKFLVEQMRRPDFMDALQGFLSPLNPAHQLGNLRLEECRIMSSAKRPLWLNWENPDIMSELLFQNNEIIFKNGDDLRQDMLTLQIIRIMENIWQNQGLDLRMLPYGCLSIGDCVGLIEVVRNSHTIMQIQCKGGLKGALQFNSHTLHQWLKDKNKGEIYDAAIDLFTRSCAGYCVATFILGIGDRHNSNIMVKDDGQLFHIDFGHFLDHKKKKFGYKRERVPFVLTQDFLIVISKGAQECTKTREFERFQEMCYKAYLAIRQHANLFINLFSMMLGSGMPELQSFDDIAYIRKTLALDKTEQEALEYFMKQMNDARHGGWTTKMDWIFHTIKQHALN
T2 sequence (P27986 whole entry partner): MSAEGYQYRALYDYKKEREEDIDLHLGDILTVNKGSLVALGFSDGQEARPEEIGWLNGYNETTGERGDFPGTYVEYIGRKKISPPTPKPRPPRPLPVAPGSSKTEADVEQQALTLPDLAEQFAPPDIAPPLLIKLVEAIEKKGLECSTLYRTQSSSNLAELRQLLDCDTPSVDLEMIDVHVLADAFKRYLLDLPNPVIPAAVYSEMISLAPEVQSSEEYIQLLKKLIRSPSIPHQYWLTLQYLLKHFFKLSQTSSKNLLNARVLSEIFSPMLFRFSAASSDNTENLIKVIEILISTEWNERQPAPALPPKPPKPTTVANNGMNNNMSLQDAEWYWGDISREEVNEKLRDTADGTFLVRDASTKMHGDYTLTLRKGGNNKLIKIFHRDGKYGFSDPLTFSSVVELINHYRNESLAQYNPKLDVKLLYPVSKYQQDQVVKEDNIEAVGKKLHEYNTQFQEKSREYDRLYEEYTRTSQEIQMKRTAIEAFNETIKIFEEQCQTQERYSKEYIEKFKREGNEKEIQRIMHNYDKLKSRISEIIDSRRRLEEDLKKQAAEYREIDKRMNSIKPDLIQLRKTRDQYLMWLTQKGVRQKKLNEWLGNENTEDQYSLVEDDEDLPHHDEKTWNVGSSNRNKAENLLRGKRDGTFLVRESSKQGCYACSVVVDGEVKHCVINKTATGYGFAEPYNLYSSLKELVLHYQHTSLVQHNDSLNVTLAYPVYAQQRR
Chain of PI3K-α (PIK3CA) in MDA-MB-453 cells (P27986 2-724): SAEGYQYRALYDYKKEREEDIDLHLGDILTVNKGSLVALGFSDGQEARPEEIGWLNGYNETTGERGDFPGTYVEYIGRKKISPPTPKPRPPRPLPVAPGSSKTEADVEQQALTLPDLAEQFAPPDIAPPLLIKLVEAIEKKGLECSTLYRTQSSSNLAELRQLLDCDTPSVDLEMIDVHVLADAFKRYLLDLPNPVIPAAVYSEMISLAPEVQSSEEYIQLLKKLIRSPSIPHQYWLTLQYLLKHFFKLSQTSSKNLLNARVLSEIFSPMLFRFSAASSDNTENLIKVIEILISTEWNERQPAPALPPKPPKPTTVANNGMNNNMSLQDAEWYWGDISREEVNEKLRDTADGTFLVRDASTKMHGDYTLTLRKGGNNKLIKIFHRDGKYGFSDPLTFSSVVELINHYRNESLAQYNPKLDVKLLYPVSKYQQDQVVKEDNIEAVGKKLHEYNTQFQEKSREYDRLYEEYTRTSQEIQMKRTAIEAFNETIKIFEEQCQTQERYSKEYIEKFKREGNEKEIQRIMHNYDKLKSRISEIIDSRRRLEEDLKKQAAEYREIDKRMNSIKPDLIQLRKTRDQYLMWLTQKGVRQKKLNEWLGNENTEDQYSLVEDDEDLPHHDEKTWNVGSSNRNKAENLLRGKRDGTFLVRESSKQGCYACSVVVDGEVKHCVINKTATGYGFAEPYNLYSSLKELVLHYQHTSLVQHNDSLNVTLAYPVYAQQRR
Chain of PI3K-α (PIK3CA) in MDA-MB-453 cells (P42336 whole entry): as the sequence (P42336 whole entry H1047R) above, with R1047H counted along it

On to `Cc1cc(C(C)Nc2ccccc2C(=O)O)c2oc(-c3ccc4cnn(C)c4n3)cc(=O)c2c1` (single isomer, unassigned) [Example 82, 2-[1-[6-Methyl-2-(1-methylpyrazolo[3,4-b]pyridin-6-yl)-4-oxo-chromen-8-yl]ethylamino]benzoic acid], for which the concentration for half-maximal inhibition (IC50) in assay [1] was 100 to 500 nM; in assay [2] it was 500 to 1000 nM; in assay [3], under 500 nM.
As to `Cc1cc(C(C)Nc2ccccc2C(=O)O)c2oc(-c3ccc4c(c3)OC(F)(F)O4)cc(=O)c2c1` (single isomer, unassigned) [Example 64, 2-[1-[2-(2,2-Difluoro-1,3-benzodioxol-5-yl)-6-methyl-4-oxo-chromen-8-yl]ethylamino]benzoic acid], the IC50 is under 50 nM in assay [1], 1000 to 5000 nM in assay [2] and under 500 nM in assay [3].
Turning to `Cc1cc(C(C)Nc2ccc(Cl)nc2C(=O)O)c2oc(-c3ccc4c(cnn4C)c3)cc(=O)c2c1` (single isomer, unassigned) [Example 218, 6-Chloro-3-[1-[6-methyl-2-(1-methylindazol-5-yl)-4-oxo-chromen-8-yl]ethylamino]pyridine-2-carboxylic acid], the figures for the IC50 in assay [1], in assay [2] and in assay [3] were under 50 nM, under 500 nM and under 500 nM, respectively.
On to `Cc1cc([C@@H](C)Nc2cccc(F)c2C(=O)O)c2oc(-c3ccc4nn(C)cc4c3)c(C)c(=O)c2c1` [Example 227, 2-[[(1R)-1-[3,6-Dimethyl-2-(2-methylindazol-5-yl)-4-oxo-chromen-8-yl]ethyl]amino]-6-fluoro-benzoic acid], for which the IC50 in assay [1] is under 50 nM; in assay [2], 500 to 1000 nM; in assay [3] it was under 500 nM.
With `Cc1cc(C(C)Nc2ccccc2C(=O)O)c2oc(-c3ccc4c(C)nn(C)c4c3)cc(=O)c2c1` (single isomer, unassigned) [Example 27, 2-[1-[2-(1,3-Dimethylindazol-6-yl)-6-methyl-4-oxo-chromen-8-yl]ethylamino]benzoic acid], the IC50 in assay [1] was under 50 nM; in assay [2], 500 to 1000 nM; in assay [3], under 500 nM.
Regarding `Cc1cc([C@@H](C)Nc2ccc(C)nc2C(=O)O)c2oc(-c3ccc4nc(C)cn4c3)cc(=O)c2c1` [Example 225, 6-Methyl-3-[[(1R)-1-[6-methyl-2-(2-methylimidazo[1,2-a]pyridin-6-yl)-4-oxo-chromen-8-yl]ethyl]amino]pyridine-2-carboxylic acid], the results for the IC50 in assay [1], in assay [2] and in assay [3] were 100 to 500 nM, 1000 to 5000 nM and under 500 nM, respectively.
For `Cc1cc(C(C)Nc2ccccc2C(=O)O)c2oc(-c3cnc4ccccn34)cc(=O)c2c1` (single isomer, unassigned) [Example 145, 2-[1-(2-Imidazo[1,2-a]pyridin-3-yl-6-methyl-4-oxo-chromen-8-yl)ethylamino]benzoic acid], in that order: 100 to 500 nM, 1000 to 5000 nM and under 500 nM.
For `Cc1cc(C(C)Nc2ccc(Cl)nc2C(=O)O)c2oc(-c3ccc4c(c3)c(C)nn4C)cc(=O)c2c1` (single isomer, unassigned) [Example 224, 6-Chloro-3-[1-[2-(1,3-dimethylindazol-5-yl)-6-methyl-4-oxo-chromen-8-yl]ethylamino]pyridine-2-carboxylic acid], in that order: under 50 nM, under 500 nM and under 500 nM.
Regarding `Cc1cc([C@@H](C)Nc2ccc(Cl)nc2C(=O)O)c2oc(-c3ccc4nc(C)sc4n3)c(C)c(=O)c2c1` [Example 242, 6-Chloro-3-[[(1R)-1-[3,6-dimethyl-2-(2-methylthiazolo[5,4-b]pyridin-5-yl)-4-oxo-chromen-8-yl]ethyl]amino]pyridine-2-carboxylic acid], the IC50 is under 50 nM in assay [1], 500 to 1000 nM in assay [2] and under 500 nM in assay [3].
As for `Cc1cc([C@@H](C)Nc2cccc(F)c2C(=O)O)c2oc(-c3nn(C)c4ccccc34)c(C)c(=O)c2c1` [Example 230, 2-[[(1R)-1-[3,6-Dimethyl-2-(1-methylindazol-3-yl)-4-oxo-chromen-8-yl]ethyl]amino]-6-fluoro-benzoic acid], the IC50 in assay [1] was 50 to 100 nM; in assay [2], under 500 nM; in assay [3] it was under 500 nM.
On to `Cc1cc(C(C)Nc2ccccc2C(=O)O)c2oc(-c3ccc4nc(C)sc4n3)cc(=O)c2c1` (single isomer, unassigned) [Example 139, 2-[1-[6-Methyl-2-(2-methylthiazolo[5,4-b]pyridin-5-yl)-4-oxo-chromen-8-yl]ethylamino]benzoic acid], for which the half-inhibitory concentration (IC50) in assay [1] was under 50 nM; in assay [2], 1000 to 5000 nM; in assay [3], under 500 nM.
Take `Cc1cc(C(C)Nc2ccccc2C(=O)O)c2oc(-c3ccc4nccn4n3)cc(=O)c2c1` (single isomer, unassigned) [Example 35, 2-[1-(2-Imidazo[1,2-b]pyridazin-6-yl-6-methyl-4-oxo-chromen-8-yl)ethylamino]benzoic acid]: the concentration for half-maximal inhibition (IC50) in assay [1] was over 500 nM; in assay [2], 5000 to 10000 nM; in assay [3], 5000 to 10000 nM.
Take `Cc1cc([C@@H](C)Nc2ccc(F)cc2C(=O)O)c2oc(-c3ccc4c(cnn4C)c3)c(C)c(=O)c2c1` [Example 260, 2-[[(1R)-1-[3,6-Dimethyl-2-(1-methylindazol-5-yl)-4-oxo-chromen-8-yl]ethyl]amino]-5-fluoro-benzoic acid]: the IC50 in assay [1] was under 50 nM; in assay [2], under 500 nM; in assay [3], under 500 nM.
Regarding `Cc1cc(C(C)Nc2ccccc2C(=O)O)c2oc(-c3ccc4c(c3)OCO4)c(C)c(=O)c2c1` (single isomer, unassigned) [Example 93, 2-[1-[2-(1,3-Benzodioxol-5-yl)-3,6-dimethyl-4-oxo-chromen-8-yl]ethylamino]benzoic acid], the 50% inhibitory concentration (IC50) in assay [1] is under 50 nM; in assay [2], 500 to 1000 nM; in assay [3], under 500 nM.
As for `Cc1cc(C(C)Nc2ccccc2C(=O)O)c2oc(-c3cnn4cccnc34)cc(=O)c2c1` (single isomer, unassigned) [Example 33, 2-[1-(6-Methyl-4-oxo-2-pyrazolo[1,5-a]pyrimidin-3-yl-chromen-8-yl)ethylamino]benzoic acid], the results for the IC50 in assay [1], in assay [2] and in assay [3] were over 500 nM, over 10000 nM and over 10000 nM, respectively.
On to `Cc1cc(C(C)Nc2ccc(Cl)nc2C(=O)O)c2oc(-c3ccc4cc[nH]c4n3)cc(=O)c2c1` (single isomer, unassigned) [Example 215, 6-Chloro-3-[1-[6-methyl-4-oxo-2-(1H-pyrrolo[2,3-b]pyridin-6-yl)chromen-8-yl]ethylamino]pyridine-2-carboxylic acid], for which the results for the 50% inhibitory concentration (IC50) in assay [1], in assay [2] and in assay [3] were under 50 nM, 500 to 1000 nM and under 500 nM, respectively.
Take `Cc1cc(C(C)Nc2ccccc2C(=O)O)c2oc(-c3ccc4nc(C)cn4c3)cc(=O)c2c1` (single isomer, unassigned) [Example 37, 2-[1-[6-Methyl-2-(2-methylimidazo[1,2-a]pyridin-6-yl)-4-oxo-chromen-8-yl]ethylamino]benzoic acid]: the figures for the IC50 in assay [1], in assay [2] and in assay [3] were over 500 nM, 1000 to 5000 nM and over 10000 nM, respectively.
For `Cc1cc(C(C)Nc2ccccc2C(=O)O)c2oc(-c3ccc4nc(C(F)(F)F)cn4c3)cc(=O)c2c1` (single isomer, unassigned) [Example 70, 2-[1-[6-Methyl-4-oxo-2-[2-(trifluoromethyl)imidazo[1,2-a]pyridin-6-yl]chromen-8-yl]ethylamino]benzoic acid], in that order: 50 to 100 nM, 1000 to 5000 nM and under 500 nM.
In the case of `Cc1cc(C(C)Nc2ccccc2C(=O)O)c2oc(-n3ncc4ccccc43)cc(=O)c2c1` (single isomer, unassigned) [Example 49, 2-[1-(2-Indazol-1-yl-6-methyl-4-oxo-chromen-8-yl)ethylamino]benzoic acid], the IC50 in assay [1] was under 50 nM; in assay [2], 500 to 1000 nM; in assay [3] it was under 500 nM.
On to `Cc1cc(-c2cc(=O)c3cc(C(F)(F)F)cc(C(C)Nc4ccc(Cl)nc4C(=O)O)c3o2)cc2cn(C)nc12` (single isomer, unassigned) [Example 191, 6-Chloro-3-[1-[2-(2,7-dimethylindazol-5-yl)-4-oxo-6-(trifluoromethyl)chromen-8-yl]ethylamino]pyridine-2-carboxylic acid], for which the IC50 was 100 to 500 nM in assay [1], 500 to 1000 nM in assay [2] and under 500 nM in assay [3].
For `Cc1cc(C(C)Nc2ccccc2C(=O)O)c2oc(-n3ncc4c(F)cccc43)cc(=O)c2c1` (single isomer, unassigned) [Example 86], the IC50 in assay [1] is 50 to 100 nM; in assay [2], 500 to 1000 nM; in assay [3], under 500 nM.
Take `Cc1cc(C(C)Nc2ccc(Cl)nc2C(=O)O)c2oc(-c3ccc4cnn(C)c4c3)cc(=O)c2c1` (single isomer, unassigned) [Example 220, 6-Chloro-3-[1-[6-methyl-2-(1-methylindazol-6-yl)-4-oxo-chromen-8-yl]ethylamino]pyridine-2-carboxylic acid]: the IC50 in assay [1] was under 50 nM; in assay [2], under 500 nM; in assay [3], under 500 nM.

Source of the values: patent publication US11878970B2, “Allosteric chromenone inhibitors of phosphoinositide 3-kinase (PI3K) for the treatment of disease” (Petra Pharma Corporation, priority 2021, dated 2024).
